Laboratory results reported in publication PMC10223552 (Pharmaceuticals, 2023).

Legend:
Assay type in all cases: cell-based
[1] = test system: BJ normal skin fibroblast; assay: MTT cytotoxicity test, BJ normal fibroblasts; conditions: Homo sapiens, 48 h treatment
Method: The studies were conducted on two breast cancer cell lines—MCF-7 (ER+PR+/HER2-negative) and MDA-MB-231 (ER/PR/HER2-negative) and human normal fibroblast cell line BJ. The cell lines were obtained from American Type Culture Collection (ATCC, Manassas, VA, USA) and were cultured at 37 °C in the presence of 5% CO2 in the atmosphere. The culture media (Eagle’s Minimum Essential Medium for MCF-7 and BJ, Leibovitz’s L-15 Medium for MDA-MB-231, Corning, NY, USA), was supplemented with 10% fetal bovine serum. The cell’s morphology was examined under a Nikon Eclipse Ti inverted phase contrast microscope (Nikon, Tokyo, Japan). The authenticity of tested cell lines was verified by short tandem repeat (STR) genotyping in the Department of Forensic Medicine (Medical University of Lublin, Lublin, Poland).
Cell viability based on metabolic activity was evaluated with the MTT colorimetric test based on the ability of viable cells to cause the transformation of tetrazolium salts MTT (3-[4,5-dimethylthiazol-2-yl]-2,5)diphenyltetrazolium bromide) into purple formazan, by cellular dehydrogenases. The cells were seeded into 96-well plates at a concentration of 2 × 10^5 cells/mL. Once 70–80% confluency was reached, tested compounds were added: ADS10310 and ADS1017 in concentrations ranging from 1 to 250 µM or DMSO as the vehicle in control cultures for the next 48 h (max. DMSO concentration <0.5%). Doxorubicin was used for comparison as the standard chemotherapeutic agent used in breast cancer treatment. After 48 h of incubation cell cultures were supplemented with 20 µL of 5 mg/mL MTT (Thermofisher, Waltham, MA, USA) stock in PBS (Corning, NY, USA), and the incubation was continued for 4 h at 37 °C. […] The solution absorbency was measured at 570 nm, using a PowerWave™ xs microplate spectrophotometer (BioTek Instruments, Winooski, VT, USA). […] IC50 values were determined using the AAT Bioquest IC50 calculator (AAT Bioquest, Inc. Quest Graph™ EC50 Calculator. https://www.aatbio.com/tools/ec50-calculator) (accessed on 6 September 2022).

[2] = test system: MDA-MB-231 breast cancer cells; assay: cells; conditions: Homo sapiens, MDA-MB-231; 48 h treatment; read-out: MTT IC50 MDA-MB-231
Method: (§1) The cell lines were obtained from American Type Culture Collection (ATCC, Manassas, VA, USA) and were cultured at 37 °C in the presence of 5% CO2 in the atmosphere. […] The cell’s morphology was examined under a Nikon Eclipse Ti inverted phase contrast microscope (Nikon, Tokyo, Japan). The authenticity of tested cell lines was verified by short tandem repeat (STR) genotyping in the Department of Forensic Medicine (Medical University of Lublin, Lublin, Poland).
(§2) Cell viability based on metabolic activity was evaluated with the MTT colorimetric test based on the ability of viable cells to cause the transformation of tetrazolium salts MTT (3-[4,5-dimethylthiazol-2-yl]-2,5)diphenyltetrazolium bromide) into purple formazan, by cellular dehydrogenases. The cells were seeded into 96-well plates at a concentration of 2 × 10^5 cells/mL. […] Doxorubicin was used for comparison as the standard chemotherapeutic agent used in breast cancer treatment. After 48 h of incubation cell cultures were supplemented with 20 µL of 5 mg/mL MTT (Thermofisher, Waltham, MA, USA) stock in PBS (Corning, NY, USA), and the incubation was continued for 4 h at 37 °C. Next, the medium with MTT was removed, and obtained crystals were dissolved in 200 µL of DMSO (dimethyl sulfoxide, Avantor, Gliwice, Poland). The solution absorbency was measured at 570 nm, using a PowerWave™ xs microplate spectrophotometer (BioTek Instruments, Winooski, VT, USA). The experiment was performed three times with three replicates for each concentration of tested compounds.

[3] = test system: MCF-7 breast cancer cells; assay: cells; conditions: Homo sapiens, MCF7; 48 h treatment; read-out: MTT IC50 MCF-7
Method: as §1, §2

## COc1cccc2c1C(=O)c1c(O)c3c(c(O)c1C2=O)C[C@@](O)(C(=O)CO)C[C@@H]3O[C@H]1C[C@H](N)[C@H](O)[C@H](C)O1 [Doxorubicin, reference compound]
[1]
  IC50: 4.87 µM
[2]
  IC50: 1.85 µM
[3]
  IC50: 2.12 µM
